Results: patent US6750015B2 (priority 2000, dated 2004)

Target: T1, PR-A (Homo sapiens, UniProt P06401)
T1 construct: expressed in transfected cells
T1 sequence (P06401 1-769 isoform P06401-2): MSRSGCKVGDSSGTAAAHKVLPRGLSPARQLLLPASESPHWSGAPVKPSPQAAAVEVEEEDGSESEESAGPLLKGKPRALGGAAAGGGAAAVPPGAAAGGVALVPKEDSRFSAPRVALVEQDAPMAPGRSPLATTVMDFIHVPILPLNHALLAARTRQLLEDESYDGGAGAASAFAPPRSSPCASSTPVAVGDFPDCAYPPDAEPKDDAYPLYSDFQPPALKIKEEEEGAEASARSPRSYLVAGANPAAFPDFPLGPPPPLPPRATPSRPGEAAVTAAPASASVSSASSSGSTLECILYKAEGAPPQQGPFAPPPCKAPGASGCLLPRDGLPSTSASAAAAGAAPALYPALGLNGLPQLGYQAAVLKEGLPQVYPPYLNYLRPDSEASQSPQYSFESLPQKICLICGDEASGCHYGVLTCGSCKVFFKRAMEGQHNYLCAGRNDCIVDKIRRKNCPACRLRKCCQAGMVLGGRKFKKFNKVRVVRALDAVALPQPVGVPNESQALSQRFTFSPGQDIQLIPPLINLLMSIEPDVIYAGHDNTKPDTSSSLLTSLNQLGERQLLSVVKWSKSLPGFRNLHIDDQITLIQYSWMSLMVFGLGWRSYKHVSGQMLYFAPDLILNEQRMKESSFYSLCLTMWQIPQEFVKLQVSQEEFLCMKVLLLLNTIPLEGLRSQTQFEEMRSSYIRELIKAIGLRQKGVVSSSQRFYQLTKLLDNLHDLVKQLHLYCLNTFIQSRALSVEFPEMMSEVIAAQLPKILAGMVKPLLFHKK
Assay: Transcriptional assay: integrin alpha 6 promoter-luciferase in HeLa cells cotransfected with PR-A
Format: cell-based
Details: 10 nM progesterone 24 hours

## CC(=O)[C@H]1CC[C@H]2[C@@H]3CCC4=CC(=O)CC[C@]4(C)[C@H]3CC[C@]12C [progesterone]
  Transcription of the integrin alpha 6 promoter (luciferase): not regulated at all
